Experimental data from patent publication US6037351A, “Method of inhibiting hepatitis B virus” (priority 1996, dated 2000).

Tests used:
MHBs (PreS2) = test: Western blot of MHBs in sucrose gradient fractions; type: cell-based, HBV
Description: Polyethylene glycol (PEG) precipitates of culture medium (FIG. 5A) or partly purified virions, HBs filaments and spheres from untreated (FIG. 5B) and NBDNJ treated (FIG. 5C) cultures were resolved by SDS-PAGE (13.5% acrylamide), transferred to immobilin paper and incubated with PreS1 and PreS2 specific monoclonal antibody.
Samples were dissolved in loading buffer, resolved by electrophoresis through 13.5% SDS polyacrylamide gels (SDS-PAGE) and transferred to PVDF (Millipore) membranes and blocked with 5% powdered milk, as in Gultekin and Heerman, Analytical Biochem. 172, 320-329 (1989). After incubation with primary antibody overnight at room temperature in 1% bovine serum albumin (BSA) in TNE and second antibody (peroxidase conjugated goat anti-mouse IgG serum) for 1 hour in TNE at room temperature, membranes were developed in peroxide-diaminobenzidine (Sigma) PBS, as described in the manufacturer's instructions.
The ELISA results were confirmed by Western blot analysis of fractions from the sucrose gradient containing either intact virus, filaments or spheres (FIGS. 5B, from untreated cultures, and 5C, from NBDNJ treated cultures). […]
Fractions distal to the virion containing fractions (near the bottom of the gradient) were resolved in lane 1 to show specificity of the antibody. […] The images shown in FIGS. 5B and 5C) were quantified by densitometry.

HBs proteins = test: ELISA of HBs proteins in virion fraction of medium (sucrose gradient); type: cell-based, HBV; details: 40-46% sucrose fraction
Description: FIG. 3D: Histogram of the area under the averaged peaks of the densitometric tracing of the gel in FIG. 3B. […] Equal volumes of the indicated samples were tested for HBV envelope antigens using the enzyme-linked imminosorbent assay (ELISA) method. Samples of unfractionated medium (FIGS. 4A, 4B and 4C) or partially purified virus (FIGS. 4D, 4E and 4F) from 3-day cultures were tested for HBV SHBs ("S) (FIGS. 4A and 4D), LHBs: "PreS1" (FIGS. 4B and 4E) or MHBs "PreS2" (FIGS. 4C and 4F) epitopes. Cultures were maintained in the indicated concentrations of NBDNJ, expressed in millimolar units and shown along the X axis.
Detection of HBV proteins by the Enzyme Linked Immunoabsorbant assay (ELISA).
Monoclonal antibodies used herein are well-known and are described by Heerman et al., J. Virol. 52, 396-402 (1984), for antibody to PreS1 (MA 18/7); Heerman et al., Intervirology 28: 14-21 (1987), for antibody to PreS2 (Q 19/10), see also Gerlich and Bruss, Molecular Biology of Hepatitis B Virus, ed. […]
Bound antigen was detected by incubation with peroxidase conjugated goat anti-HBs antibody (Behring) followed by development in orthophenylenediamine (0.33 mg/ml PBS-peroxide solution). Optical densities were read in a Behring plate reader. Tests on purified virus and total medium were conducted over a series of sample dilutions to insure proper quantification. […]

hepatitis B virus (HBV) = test: Progeny HBV in medium of infected HepG2 cells (immunoprecipitation, PCR, densitometry); type: cell-based, HBV in human hepatoma HepG2 cells; details: NBDNJ 700 μg/ml (3.2 mM), HepG2 cells infected with protease processed HBV, five days after infection
Excerpt: FIG. 3A and FIG. 3C: DNA from virions, immunoprecipitated with monoclonal antibody to MHBs, was amplified by polymerase chain reaction (PCR) and resolved by agarose gel electrophoresis.
These bands were imaged by densitometry and the areas under the peaks are shown in FIG. 3C in which the average of the two samples of each NBDNJ concentration was plotted.
Infection of HepG2 cells:
HBV was purified from human serum or from the medium of cultured cells by sedimentation to between 40 and 46% sucrose (w/w) following ultracentrifugation, [Seifer et al., Virol. 179, 300-311 (1990)]. Virions were dialyzed in 0.02 M Potassium Phosphate Buffer, pH 7.4, concentrated, treated with V8 protease (from Staphylococcus aureus, Sigma Chemical Co.) overnight at 37° C. centrifuged for 8 hours through a 20% sucrose/0.01M Tris, pH 7.4, 0.14 M NaCl, 0.005 M EDTA (TNE) cushion. The pellets were re-suspended in growth medium and then used to inoculate HepG2 cells.
Progeny virus in the medium of HepG2 cells infected with serum derived HBV was detected by precipitating medium with monoclonal antibody to the PreS2 epitopes. DNA from immunoprecipated virions was amplified by a polymerase chain reaction (PCR) using primers from nucleotides 2815 and 190 with respect to the viral genome (using the EcoRI site as nucleotide 1). […]

SMILES: CCCCN1C[C@H](O)[C@@H](O)[C@H](O)[C@H]1CO [NBDNJ, N-butyl-1,5-dideoxy-1,5-imino-D-glucitol]
- decrease of MHBs in virion samples compared to untreated (MHBs (PreS2); Western blot densitometry, FIG. 5C lane 2 vs FIG. 5B lane 2): 12 fold
- decrease in MHBs (PreS2 epitope) (in words) (MHBs (PreS2); medium of NBDNJ treated cultures, FIGS. 5B and 5C): particularly severe
- HBs proteins in virion samples from medium (HBs proteins; NBDNJ 2.25 mM (approximately 500 μg/ml)): virtually no detectable HBs proteins
- HBs proteins in virion samples from medium (HBs proteins; NBDNJ 4.5 mM (approximately 1000 μg/ml)): virtually no detectable HBs proteins
- viral DNA in medium of infected cells vs untreated (hepatitis B virus (HBV)): an order of magnitude less viral DNA
